Reference: patent US6403343B2, “Method of producing a taxane-type diterpene and a method of obtaining cultured cells which produce the taxane-type dilterpene at a high rate” (Mitsui Chemicals, Inc., priority 1993, dated 2002)

Tested on: cultured cells of Taxus baccata LINN
Experiment: Growth rate and taxane yield, 21-day shake culture of Taxus baccata cells with heavy metal compound, amine, antiethylene agent or Ethrel added
Assay type: cell-based
Experimental: (§1) One gram (fresh weight) of the callus was inoculated to an Erlenmeyer flask containing 20 ml of liquid Woody Plant Medium to which the above-mentioned component was added to give the same concentration and shake culture was carried out with a rotary shaker (amplification of 25 mm, 100 rpm) and the callus was subcultured in every 21 days to accelerate the growth rate thereof.
Then shake culture was carried out at 25° C. for 21 days.
After completing the culture, cultured cells of Taxus baccata LINN were harvested by filtration and lyophilized, then the dry weight was measured to obtain the growth rate thereof. Taxane-type diterpenes were extracted from the dried callus with methanol and the like, and they were determined by comparing with standard taxol, cephalomannine, and baccatin III using high performance liquid chromatography to measure the yields of the taxane-type diterpenes.
as §1
One gram (fresh weight) of the cultured cells thus obtained was inoculated to an Erlenmeyer flask containing 20 ml of liquid Woody Plant Medium to which the above-mentioned component had been added to give the same concentration, then spermidine was added to it as amine to give the final concentration of 10^−9M-1M. Then shake culture was carried out at 25° C. for 21 days.
After completing the culture, cultured cells of Taxus baccata LINN were harvested by filtration and lyophilized, then the dry weight was measured to obtain the growth rate thereof. Taxane-type diterpenes were extracted from the dried cells with methanol and the like, and they were determined by comparing with standard taxol, cephalomannine, and baccatin III using high performance liquid chromatography to measure the yields of the taxane-type diterpene.
One gram (fresh weight) of the callus was inoculated to an Erlenmeyer flask containing 20 ml of liquid Woody Plant Medium to which the above-mentioned component had been added to give the same concentration and shake culture was carried out with a rotary shaker (amplification of 25 mm, 100 rpm) and the callus was subcultured in every 21 days to accelerate the growth rate thereof.
One gram (fresh weight) of the cultured cells thus obtained was inoculated to an Erlenmeyer flask containing 20 ml of liquid Woody Plant Medium to which the above-mentioned component had been added to give the same concentration, and shake culture was carried out at 25° C. for 14 days.

[1] = 2×10^−6 M added 5 times at 4 days' intervals from day 0, total 10^−5 M
[2] = 10^−1 M added at start, 21 days
[3] = 10^−2 M added at start, 21 days
[4] = 10^−3 M added at start, 21 days
[5] = 10^−4 M added at start, 21 days
[6] = 10^−5 M added at start, 21 days
[7] = 10^−5 M added on 7th day, 14 more days
[8] = 10^−5 M added on 14th day, 7 more days
[9] = 10^−5 M added on 18th day, 3 more days
[10] = 10^−5 M at start + methyl jasmonate 10^−4 M on 14th day
[11] = 10^−5 M at start + methyl jasmonate 10^−4 M on 14th day, oxygen 10% in the gas phase
[12] = 10^−5 M at start, oxygen 10% in the gas phase
[13] = 10^−6 M added at start, 21 days
[14] = 10^−7 M added at start, 21 days
[15] = 10^−8 M added at start, 21 days
[16] = 10^−9 M added at start, 21 days

How did the growth rate (1 M added at start, 21 days) turn out when `NCCCCNCCCN` [spermidine] was run?
The growth rate was 1.4 times.

What about the “total yield of taxane” value (1 M added at start, 21 days) of the same compound?
The value was 0.21 mg/L.

And the “yield of baccatin III” value (1 M added at start, 21 days)?
The value was 0.10 mg/L.

What about the yield of cephalomannine (1 M added at start, 21 days) of the same compound?
Its yield of cephalomannine is 0.03 mg/L.

What about the yield of taxol (1 M added at start, 21 days) of the same compound?
The yield of taxol was 0.08 mg/L.

And the growth rate [1]?
The growth rate was 2.9 times.

What about the “total yield of taxane” value [1] of the same compound?
The value was 27.74 mg/L.

What about the “yield of baccatin III” value [1] of the same compound?
The value was 6.30 mg/L.

And the yield of cephalomannine [1]?
The yield of cephalomannine was 6.01 mg/L.

What about the yield of taxol [1] of the same compound?
The yield of taxol was 15.43 mg/L.

What about the growth rate [2] of the same compound?
The growth rate was 2.1 times.

What about the “total yield of taxane” value [2] of the same compound?
The value was 3.35 mg/L.

What about the “yield of baccatin III” value [2] of the same compound?
The value was 0.41 mg/L.

And the yield of cephalomannine [2]?
The yield of cephalomannine was 1.00 mg/L.

What about the yield of taxol [2] of the same compound?
The yield of taxol was 1.94 mg/L.

What about the growth rate [3] of the same compound?
The growth rate was 2.0 times.

What about the “total yield of taxane” value [3] of the same compound?
The value was 7.13 mg/L.

And the “yield of baccatin III” value [3]?
Its value is 0.82 mg/L.

And the yield of cephalomannine [3]?
Its yield of cephalomannine is 2.42 mg/L.

What about the yield of taxol [3] of the same compound?
Its yield of taxol is 3.89 mg/L.

What about the growth rate [4] of the same compound?
The growth rate was 2.9 times.

And the “total yield of taxane” value [4]?
Its value is 17.31 mg/L.

And the “yield of baccatin III” value [4]?
The value was 2.63 mg/L.

What about the yield of cephalomannine [4] of the same compound?
Its yield of cephalomannine is 4.59 mg/L.

What about the yield of taxol [4] of the same compound?
Its yield of taxol is 10.09 mg/L.

And the growth rate [5]?
Its growth rate is 3.1 times.

What about the “total yield of taxane” value [5] of the same compound?
Its value is 22.23 mg/L.

What about the “yield of baccatin III” value [5] of the same compound?
The value was 2.78 mg/L.

What about the yield of cephalomannine [5] of the same compound?
Its yield of cephalomannine is 6.49 mg/L.

And the yield of taxol [5]?
Its yield of taxol is 12.96 mg/L.

What about the growth rate [6] of the same compound?
Its growth rate is 3.1 times.

And the “total yield of taxane” value [6]?
The value was 33.17 mg/L.

What about the “yield of baccatin III” value [6] of the same compound?
The value was 6.59 mg/L.

What about the yield of cephalomannine [6] of the same compound?
Its yield of cephalomannine is 7.30 mg/L.

What about the yield of taxol [6] of the same compound?
The yield of taxol was 19.28 mg/L.

What about the growth rate [7] of the same compound?
Its growth rate is 2.9 times.

What about the “total yield of taxane” value [7] of the same compound?
Its value is 27.45 mg/L.

What about the “yield of baccatin III” value [7] of the same compound?
Its value is 6.08 mg/L.

And the yield of cephalomannine [7]?
Its yield of cephalomannine is 6.13 mg/L.

And the yield of taxol [7]?
Its yield of taxol is 15.24 mg/L.

And the growth rate [8]?
Its growth rate is 2.9 times.

And the “total yield of taxane” value [8]?
Its value is 20.98 mg/L.

What about the “yield of baccatin III” value [8] of the same compound?
The value was 5.46 mg/L.

And the yield of cephalomannine [8]?
Its yield of cephalomannine is 5.32 mg/L.

And the yield of taxol [8]?
Its yield of taxol is 10.20 mg/L.

And the growth rate [9]?
The growth rate was 3.0 times.

And the “total yield of taxane” value [9]?
The value was 11.48 mg/L.

And the “yield of baccatin III” value [9]?
Its value is 2.95 mg/L.

What about the yield of cephalomannine [9] of the same compound?
Its yield of cephalomannine is 2.90 mg/L.

What about the yield of taxol [9] of the same compound?
Its yield of taxol is 5.63 mg/L.

And the growth rate [10]?
Its growth rate is 2.6 times.

And the “total yield of taxane” value [10]?
The value was 50.25 mg/L.

What about the “yield of baccatin III” value [10] of the same compound?
Its value is 18.96 mg/L.

What about the yield of cephalomannine [10] of the same compound?
Its yield of cephalomannine is 9.74 mg/L.

And the yield of taxol [10]?
The yield of taxol was 21.55 mg/L.

What about the growth rate [11] of the same compound?
Its growth rate is 2.6 times.

And the “total yield of taxane” value [11]?
Its value is 57.89 mg/L.

What about the “yield of baccatin III” value [11] of the same compound?
Its value is 19.65 mg/L.

And the yield of cephalomannine [11]?
The yield of cephalomannine was 8.57 mg/L.

What about the yield of taxol [11] of the same compound?
The yield of taxol was 29.67 mg/L.

What about the growth rate [12] of the same compound?
Its growth rate is 2.7 times.

And the “total yield of taxane” value [12]?
The value was 40.29 mg/L.

And the “yield of baccatin III” value [12]?
Its value is 13.43 mg/L.

What about the yield of cephalomannine [12] of the same compound?
The yield of cephalomannine was 7.81 mg/L.

What about the yield of taxol [12] of the same compound?
The yield of taxol was 19.05 mg/L.

What about the growth rate [13] of the same compound?
Its growth rate is 3.2 times.

And the “total yield of taxane” value [13]?
The value was 23.16 mg/L.

What about the “yield of baccatin III” value [13] of the same compound?
Its value is 3.61 mg/L.

And the yield of cephalomannine [13]?
The yield of cephalomannine was 6.04 mg/L.

And the yield of taxol [13]?
The yield of taxol was 13.51 mg/L.

What about the growth rate [14] of the same compound?
Its growth rate is 3.1 times.

What about the “total yield of taxane” value [14] of the same compound?
Its value is 18.89 mg/L.

And the “yield of baccatin III” value [14]?
The value was 1.34 mg/L.

What about the yield of cephalomannine [14] of the same compound?
Its yield of cephalomannine is 5.79 mg/L.

And the yield of taxol [14]?
Its yield of taxol is 11.76 mg/L.

What about the growth rate [15] of the same compound?
Its growth rate is 3.1 times.

What about the “total yield of taxane” value [15] of the same compound?
Its value is 4.39 mg/L.

What about the “yield of baccatin III” value [15] of the same compound?
Its value is 0.66 mg/L.

And the yield of cephalomannine [15]?
Its yield of cephalomannine is 1.74 mg/L.

What about the yield of taxol [15] of the same compound?
Its yield of taxol is 1.99 mg/L.

And the growth rate [16]?
The growth rate was 2.9 times.

What about the “total yield of taxane” value [16] of the same compound?
The value was 1.21 mg/L.

What about the “yield of baccatin III” value [16] of the same compound?
The value was 0.31 mg/L.

What about the yield of cephalomannine [16] of the same compound?
The yield of cephalomannine was 0.58 mg/L.

What about the yield of taxol [16] of the same compound?
Its yield of taxol is 0.32 mg/L.
